Results as given in PubChem BioAssay (NCI).
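Values below derive from 48-hour exposures of cells grown in 96-well plates, with endpoints linearly interpolated between the two concentrations bracketing the appropriate inhibition level. TGI marks complete inhibition of growth.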

Tests used:
Experiment in all cases: NCI anticancer screen, dose series, 48 h
[1] = test system: M14 melanoma
[2] = test system: K-562 leukemia
[3] = test system: HT29 colon
[4] = test system: MDA-N
[5] = test system: SK-MEL-2 melanoma
[6] = test system: SR leukemia
[7] = test system: OVCAR-5 ovarian
[8] = test system: EKVX NSCLC
[9] = test system: SF-295 CNS
[10] = test system: HOP-62 NSCLC
[11] = test system: HL-60(TB) leukemia
[12] = test system: HCT-15 colon
[13] = test system: TK-10 renal

SMILES | TGI [1] | TGI [2] | TGI [3] | TGI [4] | TGI [5] | TGI [6] | TGI [7] | TGI [8] | TGI [9] | TGI [10] | TGI [11] | TGI [12] | TGI [13]
C[C@H]1[C@H](C)CC[C@]2(C(=O)OC3OC(CO)C(O)C(O)C3O)CC[C@]3(C)C(=CC[C@@H]4[C@@]5(C)C[C@@H](O)[C@@H]6OC(=O)c7cc(O)c(O)c(O)c7-c7c(cc(O)c(O)c7O)C(=O)OC[C@]6(CO)[C@@H]5CC[C@]43C)[C@H]12 (some centres not stated) | > 100 µM | > 100 µM | > 55.8 µM | 51.1 µM | > 100 µM | 73.3 µM | > 100 µM | > 100 µM | > 91 µM | > 71.1 µM | 87.8 µM | > 100 µM | > 100 µM
COc1cc(OC2OC(CO)C(O)C(O)C2O)c2c(c1)O[C@@H]1[C@H](O)Oc3cc(OC)c(OC)cc3[C@]1(O)C2=O (some centres not stated) | > 25 µM | > 25 µM | > 25 µM | > 25 µM | > 25 µM | > 25 µM | > 25 µM | > 25 µM | > 25 µM | > 25 µM | > 25 µM | > 25 µM | > 25 µM
COC(=O)/C=C/c1cnc2c(c1)oc(=O)n2C | > 100 µM | > 100 µM | > 100 µM | > 100 µM | > 100 µM | > 100 µM | > 100 µM | > 100 µM | > 100 µM | > 100 µM | > 100 µM | > 100 µM | > 100 µM
CS(=O)(=O)CCC(N)P(=O)(O)O (configuration not stated) | > 100 µM | > 100 µM | > 100 µM | > 100 µM | > 100 µM | > 100 µM | > 100 µM | > 100 µM | > 100 µM | > 100 µM | > 100 µM | > 100 µM | > 100 µM
CN(/N=C/c1ccccc1C(=O)O)C1=NCCCCN1 | > 100 µM | > 100 µM | > 100 µM | > 100 µM | > 100 µM | > 100 µM | > 100 µM | > 100 µM | > 100 µM | > 100 µM | > 100 µM | > 100 µM | > 100 µM
Cc1nn(C(=O)c2ccncc2)c2c1C(c1ccc([N+](=O)[O-])cc1)SC(N)=N2 (configuration not stated) | > 100 µM | > 100 µM | > 100 µM | > 100 µM | > 100 µM | > 100 µM | > 100 µM | > 100 µM | > 100 µM | > 100 µM | > 100 µM | > 100 µM | > 100 µM
NS(=O)(=O)c1nnc(NC(=O)/C=C/C(=O)O)s1 | > 100 µM | > 100 µM | > 100 µM | > 100 µM | > 100 µM | > 100 µM | > 100 µM | > 100 µM | > 100 µM | > 100 µM | > 100 µM | > 100 µM | > 100 µM
COc1ccc2[nH]c3c(C)c4ncccc4c(C)c3c2c1 | 3.24 µM | > 10 µM | 6.98 µM | > 10 µM | > 10 µM | > 10 µM | > 10 µM | > 10 µM | 9.26 µM | > 10 µM | 5.85 µM | > 10 µM | > 10 µM
FC(F)(F)C1(c2ccccc2)SCc2nc3ccccc3n21 (configuration not stated) | > 100 µM | > 100 µM | > 100 µM | > 100 µM | > 100 µM | > 100 µM | > 100 µM | > 100 µM | > 100 µM | > 100 µM | > 100 µM | > 100 µM | > 100 µM
